Measured values taken from the NIST ThermoML archive (doi:10.1021/je060271a).

Conditions: 343.15 K, Liquid, Vibrating tube method

CCCCCC(=O)OCC(COC(=O)CCCCC)(COC(=O)CCCCC)COC(=O)CCCCC [pentaerythritol tetrahexanoate]
Conditions | mass density [kg/m3]
5696.7 kPa | 961.3
5737.4 kPa | 961.4
5771.4 kPa | 961.4
5805.5 kPa | 961.6
5839.7 kPa | 961.6
5880 kPa | 961.6
5913.7 kPa | 961.6
5948.1 kPa | 961.5
5988.1 kPa | 961.6
6021.6 kPa | 961.7
6055.8 kPa | 961.8
6095.9 kPa | 961.7
6130 kPa | 961.7
6163.7 kPa | 961.6
6303.4 kPa | 962.1
6343 kPa | 961.7
6375.6 kPa | 961.9
6408.1 kPa | 961.9
6440.4 kPa | 961.9
6478.6 kPa | 962.1
6509.9 kPa | 962
6541 kPa | 962.1
6572.6 kPa | 962.1
6608.9 kPa | 962.2
6752.3 kPa | 962.2
6777.5 kPa | 962.2
6802.4 kPa | 962.2
6831.3 kPa | 962.4
6854.2 kPa | 962.2
6882.2 kPa | 962.3
6906 kPa | 962.3
6930.2 kPa | 962.3
6953.5 kPa | 962.4
6977.2 kPa | 962.4
7001.2 kPa | 962.4
7029.7 kPa | 962.4
7054.1 kPa | 962.6
7078.2 kPa | 962.6
7102.1 kPa | 962.5
7130.7 kPa | 962.4
7154.9 kPa | 962.5
7179.4 kPa | 962.5
7208.3 kPa | 962.6
7233.7 kPa | 962.6
7260 kPa | 962.6
7284.4 kPa | 962.6
7309.2 kPa | 962.7
7338.6 kPa | 962.7
7363.8 kPa | 962.7
7388.9 kPa | 962.6
7418.5 kPa | 962.7
7443.8 kPa | 962.8
7469 kPa | 962.8
7499.3 kPa | 962.8
7524.9 kPa | 962.8
7767.9 kPa | 962.9
7799 kPa | 963
7825.1 kPa | 963.1
7851.3 kPa | 962.9
7877.7 kPa | 963.1
7909.5 kPa | 963.1
7936.7 kPa | 963
7963.5 kPa | 963.3
7989.9 kPa | 963.2
8021.4 kPa | 963.1
8047.9 kPa | 963.1
8074.4 kPa | 963.2
8105.7 kPa | 963.3
8131.9 kPa | 963.3
8158.1 kPa | 963.4
8189.5 kPa | 963.3
8215.6 kPa | 963.3
8242.5 kPa | 963.3
8269.2 kPa | 963.4
8301.8 kPa | 963.4
8328.6 kPa | 963.3
8355.6 kPa | 963.5
8382.4 kPa | 963.3
8415.2 kPa | 963.5
8442.4 kPa | 963.4
8469.3 kPa | 963.5
8502.3 kPa | 963.5
8646.3 kPa | 963.7
8736.5 kPa | 963.7
8764.6 kPa | 963.7
8798.5 kPa | 963.7
8827.2 kPa | 963.9
8855.8 kPa | 963.7
8890.1 kPa | 963.9
8919.1 kPa | 963.8
8953.7 kPa | 964
8982.7 kPa | 963.9
9012.2 kPa | 963.9
9047.3 kPa | 964
9077.3 kPa | 963.9
9107.5 kPa | 964
9137.5 kPa | 964
9173.3 kPa | 964
9362.4 kPa | 964.1
9399.5 kPa | 964.2
9430.7 kPa | 964.2
9462.9 kPa | 964.2
9496.5 kPa | 964.2
9527.5 kPa | 964.2
9565.2 kPa | 964.4
9800.6 kPa | 964.4
11008 kPa | 965.5
11050 kPa | 965.3
11087 kPa | 965.3
11123 kPa | 965.3
11159 kPa | 965.4
11202 kPa | 965.4
11238 kPa | 965.5
11274 kPa | 965.6
11701 kPa | 965.7
11736 kPa | 965.9
11778 kPa | 965.9
11813 kPa | 965.9
11848 kPa | 966
11889 kPa | 965.9
11924 kPa | 965.9
11958 kPa | 966
11998 kPa | 966.1
12031 kPa | 966.2
12159 kPa | 966.1
12190 kPa | 966.2
12236 kPa | 966.3
12264 kPa | 966.2
12287 kPa | 966.4
12310 kPa | 966.3
12337 kPa | 966.4
12361 kPa | 966.4
12383 kPa | 966.3
12808 kPa | 966.7
12827 kPa | 966.7
12842 kPa | 966.7
12857 kPa | 966.7
12873 kPa | 966.7
12892 kPa | 966.7
12909 kPa | 966.7
12927 kPa | 966.8
12989 kPa | 966.8
13011 kPa | 966.7
13039 kPa | 966.9
13064 kPa | 967
